From patent publication US4052436A, “Fluorene-2-acetic acids and derivatives, process and method of using” (E. R. Squibb & Sons, Inc., priority 1976, dated 1977)

Legend:
[1] = anti-inflammatory activity of the optical isomers and dl mixture (test not specified); assay type: in vivo; details: α-methyl-fluorene-2-acetic acid, d and l optical isomers and dl mixture
[2] = tested on: carrageenin-induced edema in the hind paw of the rat; assay: carrageenin-induced edema assay (oral, hind paw); assay type: in vivo; details: 5 h, carrageenin injected into hind paw 2 h after dose, edema weighed 3 h after injection, read-out: ID50 (calculated dose that produces 50 percent inhibition of the edema)
Procedure: The anti-inflammatory activities of fluorene-2-acetic acid and its derivatives may be tested by a carrageenin-induced edema assay. Carrageenin injected into the footpad of rats produces an edematous condition, due mainly to vaso-active mediators. The compound to be tested is administered orally and assessed for inhibition of the edema.
The following examples show the anti-inflammatory activity of fluorene-2-acetic acid and 7-chloro-fluorene-2-acetic acid as determined by carrageenin-induced edema assay.
The procedure for these experiments is to first orally administer the test compound to a rat. Two hours later a solution of carrageenin is injected into the plantar surface of the hind paw of the rat. Three hours after the injection (5 hours after administration of the drug) the edema in the treated paw is measured by weighing the paws. To establish the baseline, the weight of the contralateral paw is determined. A dose-response curve is established, and the activity of the drug is recorded as the calculated dose that produces 50 percent inhibition (ID50) of the edema.

Row | Structure (SMILES) | anti-inflammatory activity [1] | ED50 [2]
1 | CC(C(=O)O)c1ccc2c(c1)Cc1ccccc1-2 (single isomer, unassigned) [d, α-methyl-fluorene-2-acetic acid] | possesses anti-inflammatory activity | 
2 | CC(C(=O)O)c1ccc2c(c1)Cc1ccccc1-2 (single isomer, unassigned) [l, α-methyl-fluorene-2-acetic acid] | possesses anti-inflammatory activity | 
3 | CC(C(=O)O)c1ccc2c(c1)Cc1ccccc1-2 (stereo not drawn) [dl mixture, α-Methyl fluorene-2-acetic acid] | possesses anti-inflammatory activity | 
4 | O=C(O)Cc1ccc2c(c1)Cc1ccccc1-2 [fluorene-2-acetic acid] |  | 67 mg/kg
5 | O=C(O)Cc1ccc2c(c1)Cc1cc(Cl)ccc1-2 [7-chloro-fluorene-2-acetic acid] |  | ~150 mg/kg
